Experimental findings from BindingDB's records for doi:10.3109/14756366.2012.692086 (Giresun University, 2013) are described below.

This test deals with T1, Neutrophil elastase (Homo sapiens, UniProt P08246).
T1 sequence (P08246 whole entry): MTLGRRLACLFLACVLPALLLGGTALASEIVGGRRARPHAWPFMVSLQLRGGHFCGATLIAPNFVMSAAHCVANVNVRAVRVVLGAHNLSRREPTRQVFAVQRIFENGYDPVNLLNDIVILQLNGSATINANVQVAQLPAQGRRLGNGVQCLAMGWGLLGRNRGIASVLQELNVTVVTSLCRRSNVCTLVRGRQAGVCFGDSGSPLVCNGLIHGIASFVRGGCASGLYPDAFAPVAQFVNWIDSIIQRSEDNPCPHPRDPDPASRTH
The test is described as follows: Elastase Activity Assay. The source says: The elastase inhibitor activity was examined using N-succinyl-Ala-Ala-Ala-pnitroanilide (STANA) as the substrate and by the measuring of the release of p-nitroaniline at 410 nm [James et al., Biochemistry, 35:9090-9096].
In the case of `C[C@H]1[C@H](C)CC[C@]2(C(=O)O)CC[C@]3(C)C(=CC[C@@H]4[C@@]5(C)CC[C@H](O)C(C)(C)[C@@H]5CC[C@]43C)[C@H]12` [3beta-hydroxyurs-12-en-28-oic acid], inhibition was half-maximal at 416 nM (IC50).

As for `CN(CCN(Cc1cc(=O)oc2c(O)c(O)ccc12)c1ccccc1)c1ccccc1` [4,4'-(Ethane-1,2-diylbis(phenylazanediyl))bis(methylene)bis(6,7-dihydroxy-2H-chromen-2-one) (7)], the IC50 (commonly the point on the concentration scale where inhibition reaches its midpoint) came out at 125 nM.

Turning to `CN(CCN(Cc1cc(=O)oc2cc(O)c(O)cc12)c1ccccc1)c1ccccc1` [4,4'-(Ethane-1,2-diylbis(phenylazanediyl))bis(methylene)bis(7,8-dihydroxy-2H-chromen-2-one) (3)], the 50% inhibitory concentration (IC50) is 127 nM.
